Reference: article PMC5520057, “Modulation of nongenomic activation of PI3K signalling by tetramerization of N-terminally-cleaved RXRα” (Nature Communications, 2017)
Where “and” joins values, the source holds several entries; their conditions need not be identical. Identical values can stand only once.

How the values were obtained:
[1] = tested on: p85α-ΔiSH2 / tRXRα interaction; experiment: p85α-ΔiSH2 interaction with tRXRα; assay type: cell-based
Method: (§1) Cell lysates were then prepared and incubated with bis[sulfosuccinimidyl] suberate (BS3, Pierce) dissolved in dimethyl sulfoxide to a final concentration of 1 mM. The reactions were stopped with protein gel loading buffer. Samples were resolved by SDS/PAGE in 8% acrylamide gels and protein bands were visualized by western blotting.

Myc-RXRα-LBD (human) = experiment: cross-linking; cells (HepG2, HEK293T, MCF-7) transfected for 24 h, treated with 9-cis-RA (10^-7 M) and/or K-80003 (5 x 10^-6 M) for 6 h; lysates or fractions incubated with 1 mM BS3, SDS-PAGE and western blotting
[2] = tested on: p85α / tRXRα/R316E interaction; experiment: coIP, p85α with tRXRα/R316E; assay type: cell-based; details: HEK293T cells; TNFα (10 ng ml^−1) or 9-cis-RA (10^−7 M) for 1 h; coIP anti-Myc
Method: (§4) For coIP assay[29], HEK293T cells grown in 10 cm dishes were transfected with various plasmids. Cells were lysed in 1 ml of lysis buffer (20 mM Tris (pH 7.5), 150 mM NaCl, 1% Triton X-100, 1 mM EDTA, 30 mM NaF, 2 mM sodium pyrophosphate) with a cocktail of proteinase inhibitors (Roche). Lysates were incubated with the appropriate antibody for 12 h at 4 °C and subsequently incubated with protein A-Sepharose beads for 1 h. The immunoprecipitates were collected and washed three times with lysis buffer. The protein–antibody complexes recovered on beads were subjected to immunoblotting using appropriate antibodies after separation by SDS-PAGE. Input represents 5% of cell lysates used for coIP assays.

p85α / tRXRα interaction = experiment: coIP, p85α with tRXRα; assay type: cell-based; details: HEK293T cells; TNFα (10 ng ml^−1) for 1 h; coIP anti-Myc
Method: as §4

tRXRα = experiment: Subcellular localization of tRXRα, immunostaining; assay type: cell-based; details: MCF-7 cells cotransfected with p85α; TNFα (10 ng ml^−1) for 30 min; confocal microscopy
Method: (§2) Cells mounted on glass slides or tumour tissue frozen sections (5-μm-thick) were washed with PBS and fixed in 4% paraformaldehyde (PFA) for 15 min and permeabilized with PBS containing 0.1% Triton X-100 for 15 min. Fixed cells or tumour tissues were blocked with 5 mg ml^−1 BSA in PBS for 30 min at room temperature, followed with incubation with primary antibodies for 3 h and secondary antibodies at room temperature for 1 h and co-stained with 4′6′-diamidino-2-phenylindole (DAPI) to visualize nuclei. The images were taken under an LSM-510 confocal laser scanning microscope system (Carl Zeiss).

RXRα [3] = experiment: Subcellular localization of RXRα, immunostaining; assay type: cell-based; details: MCF-7 cells; TNFα (10 ng ml^−1) for 30 min; confocal microscopy
Method: as §2

tRXRα/R316E [4] = experiment: Subcellular localization of tRXRα/R316E, immunostaining; assay type: cell-based; details: HEK293T cells; TNFα (10 ng ml^−1) for 30 min; confocal microscopy
Method: as §2

RXRα-LBD/R316E = experiment: Non-denaturing gel electrophoresis, R316E mutant; assay type: biochemical, human; details: 9-cis-RA (0.5 μM) or K-80003 (20 μM), 3 h at 4 °C
Method: The human RXRα LBD (residues Thr223 to Thr462) cloned as an N-terminal histidine-tagged fusion protein in pET15b expression vector was expressed in Escherichia coli BL21 strain (Stratagene). After sonication, cell extract was incubated with the His60 Ni Superflow resin, and His-tagged RXRα-LBD-resin complexes were washed, eluted and concentrated to 5 mg ml^−1 for subsequent trails. For crystallization experiment, bovine thrombin (Sigma) was used to cleave the His tag from the purified His-tagged RXRα-LBD. The resulting His tag was removed on the Resource-Q column (GE) using 0.1–1 M NaCl gradient and the Tris-Cl pH 8 buffer. RXRα-LDB was further purified using gel filtration on a Superdex 200 2660 column (GE) pre-equilibrated with the 75 mM NaCl, 20 mM Tris-Cl buffer (pH 8).

RXRα-LBD = experiment: BS3 crosslinking, transfected RXRα-LBD; assay type: cell-based; details: HepG2 cells; 9-cis-RA (10^−7 M) or K-80003 (5 × 10^−6 M) for 6 h; BS3 1 mM; western blotting
Method: as §1

[5] = tested on: RXRα-A/B / RXRα-LBD interaction; experiment: coIP, N/C interaction RXRα-A/B with RXRα-LBD; assay type: cell-based; details: HepG2 cells, coIP with anti-HA antibody; one of two similar experiments
[6] = tested on: RXRα-A/B / RXRα-LBD/W305Q interaction; experiment: coIP, N/C interaction RXRα-A/B with RXRα-LBD/W305Q; assay type: cell-based; details: HEK293T cells; 9-cis-RA (10^−7 M)
Method: as §4

[7] = tested on: p85α-BCR / RXRα-LBD interaction; experiment: coIP, p85α-BCR with RXRα-LBD; assay type: cell-based; details: 9-cis-RA (10^−7 M), one of two similar experiments
Method: (§3) For coIP assay, HEK293T cells grown in 10 cm dishes were transfected with various plasmids. Cells were lysed in 1 ml of lysis buffer (20 mM Tris (pH 7.5), 150 mM NaCl, 1% Triton X-100, 1 mM EDTA, 30 mM NaF, 2 mM sodium pyrophosphate) with a cocktail of proteinase inhibitors (Roche). Lysates were incubated with the appropriate antibody for 12 h at 4 °C and subsequently incubated with protein A-Sepharose beads for 1 h. The immunoprecipitates were collected and washed three times with lysis buffer. The protein–antibody complexes recovered on beads were subjected to immunoblotting using appropriate antibodies after separation by SDS-PAGE. Input represents 5% of cell lysates used for coIP assays.

[8] = tested on: p85α-BCR / tRXRα interaction; experiment: coIP, p85α-BCR with tRXRα; assay type: cell-based; details: 9-cis-RA (10^−7 M), one of two similar experiments
Method: as §4

[9] = tested on: p85α-BCR / RXRα-LBD/W305Q interaction; details: HEK293T cells; with or without 9-cis-RA (10^−7 M)
Method: as §3

tRXRα/R316E [10] = experiment: BS3 crosslinking, tRXRα/R316E; assay type: cell-based; details: MCF-7 cells, 9-cis-RA (10^−7 M) or K-80003 (5 × 10^−6 M) for 6 h
Method: as §1

tRXRα/F313A = experiment: BS3 crosslinking, tRXRα/F313A; assay type: cell-based; details: MCF-7 cells, 9-cis-RA (10^−7 M) or K-80003 (5 × 10^−6 M) for 6 h
Method: as §1

[11] = tested on: p85α / tRXRα/F313A interaction; experiment: coIP, p85α with tRXRα/F313A; assay type: cell-based; details: HEK293T cells; 9-cis-RA (10^−7 M) for 1 h; coIP anti-Myc
Method: as §4

RXRα [12] = tested on: RXRα; set-up: method as in PMID 10970886, PMID 9811539; details: cited from earlier work
From the text: In addition to acting as heterodimeric partners of some nuclear receptors, RXRα can form homodimers[18] that trigger specific signalling pathways. A unique property of RXRα is an auto-repressive mechanism involving homotetramerization, in which a ‘dimer-of-dimers’ pack in a bottom-to-bottom manner, with H12 from each monomer invading (and invaded by) a neighbouring domain across the tetramer interface. This pairwise ‘exchange of arms’ enables each monomer to bind to and occlude the coregulator-binding groove of its neighbour. Some molecules hav ...

[13] = biological target: the molecule itself; experiment: crystal structure; RXRα-LBD (0.35 mM) cocrystallized with K-80003, 2.6 Å; tetramer (dimer of dimers) with six K-80003 bound
[14] = biological target: the molecule itself; experiment: cross-linking; cells (HepG2, HEK293T, MCF-7) transfected for 24 h, treated with 9-cis-RA (10^-7 M) and/or K-80003 (5 x 10^-6 M) for 6 h; lysates or fractions incubated with 1 mM BS3, SDS-PAGE and western blotting
[15] = biological target: the molecule itself; experiment: native gel or EMSA; purified RXRα-LBD or mutant (0.2 μg/μl) incubated with DMSO, 9-cis-RA (0.5 μM) and/or K-80003 (20 μM) for 3 h at 4 °C; 8% non-denaturing PAGE, Coomassie staining

O=C(CCCCCCC(=O)ON1C(=O)CC(S(=O)(=O)O)C1=O)ON1C(=O)CC(S(=O)(=O)O)C1=O (stereo not shown) [BS3, bis[sulfosuccinimidyl] suberate]
9-cis-RA-induced tRXRα interaction with p85α-ΔiSH2 ([1]; HepG2 cells, K-80003 and/or 9-cis-RA, then BS3 crosslinking, western blotting): potently inhibited

Myc-RXRα-LBD (domain or fragment)
stoichiometry N (Myc-RXRα-LBD (human)): 2 and 4

TNFα
interaction of tRXRα/R316E with p85α [2]: could not bind to p85α either in the absence or presence of TNFα or 9-cis-RA | interaction of tRXRα with full-length p85α (p85α / tRXRα interaction): tRXRα interacted with the full-length p85α in the presence of TNFα | tRXRα found in the cytoplasm of cells (tRXRα): > 65% | effect on nuclear localization of RXRα (RXRα [3]): no effect on the nuclear localization of RXRα | colocalization of tRXRα/R316E with p85α (tRXRα/R316E [4]): lack of colocalization of the tRXRα/R316E mutant with p85α in the absence or presence of TNFα

CC1=C(/C=C/C(C)=C\C=C\C(C)=C\C(=O)O)C(C)(C)CCC1 [9-cis-RA, 9-cis-retinoic acid]
effect on oligomeric state of RXRα-LBD/R316E (RXRα-LBD/R316E): exhibited mainly as a tetramer independent of the presence of either 9-cis-RA or K-80003 | crosslinked RXRα-LBD species (RXRα-LBD): only monomer and homodimer | effect on RXRα-A/B / RXRα-LBD interaction [5]: inhibited by 9-cis-RA in a dose-dependent manner | effect on RXRα-A/B / RXRα-LBD/W305Q interaction [6]: could still bind to the RXRα-A/B protein in a 9-cis-RA sensitive manner similar to the wild-type RXRα-LBD | effect on p85α-BCR interaction with RXRα-LBD [7]: enhancing effect of 9-cis-RA on p85α-BCR interaction | effect on p85α-BCR interaction with tRXRα [8]: enhancing effect of 9-cis-RA on p85α-BCR interaction | binding of RXRα-LBD/W305Q with p85α-BCR [9]: impaired the binding of RXRα-LBD with p85α-BCR either in the presence or absence of 9-cis-RA | oligomeric state of tRXRα/R316E (tRXRα/R316E [10]): strong tetrameric species of tRXRα/R316E but not tRXRα/F313A independent of the presence of 9-cis-RA or K-80003 | oligomeric state of tRXRα/F313A (tRXRα/F313A): strong tetrameric species of tRXRα/R316E but not tRXRα/F313A independent of the presence of 9-cis-RA or K-80003 | interaction of tRXRα/R316E with p85α [2]: could not bind to p85α either in the absence or presence of TNFα or 9-cis-RA | interaction of tRXRα/F313A with p85α [11]: constitutive and 9-cis-RA-independent interaction with p85α | tRXRα interaction with p85α-ΔiSH2 with cotransfected RXRα-A/B ([1]; HEK293T cells, 9-cis-RA (10^−7 M) for 6 h, coIP anti-Myc): inhibited 9-cis-RA-induced interaction of tRXRα with p85α-ΔiSH2 | effect on homotetramers (RXRα [12]): dissociation of homotetramers into homodimers

B1: RXRα-LBD (His tag cleaved, for crystallization) (domain or fragment, human, UniProt P19793 223-462, looked up)
chain: TSSANEDMPVERILEAELAVEPKTETYVEANMGLNPSSPNDPVTNICQAADKQLFTLVEWAKRIPHFSELPLDDQVILLRAGWNELLIASFSHRSIAVKDGILLATGLHVHRNSAHSAGVGAIFDRVLTELVSKMRDMQMDKTELGCLRAIVLFNPDSKGLSNPAEVEALREKVYASLEAYCKHKYPEQPGRFAKLLLRLPALRSIGLKCLEHLFFFKLIGDTPIDTFLMEMLEAPHQMT
stoichiometry N [13]: 4

B2: Myc-tRXRα (domain or fragment, human, UniProt P19793 81-462, looked up)
chain: TTPTLGFSTGSPQLSSPMNPVSSSEDIKPPLGLNGVLKVPAHPSGNMASFTKHICAICGDRSSGKHYGVYSCEGCKGFFKRTVRKDLTYTCRDNKDCLIDKRQRNRCQYCRYQKCLAMGMKREAVQEERQRGKDRNENEVESTSSANEDMPVERILEAELAVEPKTETYVEANMGLNPSSPNDPVTNICQAADKQLFTLVEWAKRIPHFSELPLDDQVILLRAGWNELLIASFSHRSIAVKDGILLATGLHVHRNSAHSAGVGAIFDRVLTELVSKMRDMQMDKTELGCLRAIVLFNPDSKGLSNPAEVEALREKVYASLEAYCKHKYPEQPGRFAKLLLRLPALRSIGLKCLEHLFFFKLIGDTPIDTFLMEMLEAPHQMT
notes: retinoid X receptor alpha lacking the N-terminal 80 amino acids (deletion of 60 plus an additional 20 amino acids); also called truncated RXRα; N-terminally-cleaved RXRα; source: HEK293T, HepG2, transfected, in lysate
stoichiometry N [14]: 4

B3: Myc-tRXRα/R316E (domain or fragment, human, UniProt P19793 81-462, looked up)
chain: TTPTLGFSTGSPQLSSPMNPVSSSEDIKPPLGLNGVLKVPAHPSGNMASFTKHICAICGDRSSGKHYGVYSCEGCKGFFKRTVRKDLTYTCRDNKDCLIDKRQRNRCQYCRYQKCLAMGMKREAVQEERQRGKDRNENEVESTSSANEDMPVERILEAELAVEPKTETYVEANMGLNPSSPNDPVTNICQAADKQLFTLVEWAKRIPHFSELPLDDQVILLRAGWNELLIASFSHESIAVKDGILLATGLHVHRNSAHSAGVGAIFDRVLTELVSKMRDMQMDKTELGCLRAIVLFNPDSKGLSNPAEVEALREKVYASLEAYCKHKYPEQPGRFAKLLLRLPALRSIGLKCLEHLFFFKLIGDTPIDTFLMEMLEAPHQMT
notes: retinoid X receptor alpha lacking the N-terminal 80 amino acids; source: MCF-7, HEK293T, transfected, in lysate
stoichiometry N [14]: 4

B4: His-RXRα-LBD (domain or fragment, human, UniProt P19793 223-462, looked up)
chain: TSSANEDMPVERILEAELAVEPKTETYVEANMGLNPSSPNDPVTNICQAADKQLFTLVEWAKRIPHFSELPLDDQVILLRAGWNELLIASFSHRSIAVKDGILLATGLHVHRNSAHSAGVGAIFDRVLTELVSKMRDMQMDKTELGCLRAIVLFNPDSKGLSNPAEVEALREKVYASLEAYCKHKYPEQPGRFAKLLLRLPALRSIGLKCLEHLFFFKLIGDTPIDTFLMEMLEAPHQMT
stoichiometry N [15]: 2 and 4

B5: His-RXRα-LBD/R316E (domain or fragment, human, UniProt P19793 223-462, looked up)
chain: TSSANEDMPVERILEAELAVEPKTETYVEANMGLNPSSPNDPVTNICQAADKQLFTLVEWAKRIPHFSELPLDDQVILLRAGWNELLIASFSHESIAVKDGILLATGLHVHRNSAHSAGVGAIFDRVLTELVSKMRDMQMDKTELGCLRAIVLFNPDSKGLSNPAEVEALREKVYASLEAYCKHKYPEQPGRFAKLLLRLPALRSIGLKCLEHLFFFKLIGDTPIDTFLMEMLEAPHQMT
notes: source: bacteria expressed, purified
stoichiometry N [15]: 4
